The subject of test [1] is guinea-pig pulmonary parenchyma. The test can be described thus: L. Parenchyma: guinea-pig pulmonary parenchyma contraction antagonism induced by LTB4 (Sirois). Particulars: Cavia porcellus; Table XIX; guinea-pig pulmonary parenchyma contraction induced by LTB4; read-out: IC50 L. Parenchyma. Type of test: cell-based. Here is the method: Further, compounds of this invention are shown to be leukotriene B4 antagonists in the technique of guinea-pig pulmonary parenchyma contraction antagonism induced by LTB4 described by P. Sirois et al., Pharmacology, 31, 225-236 (1985). In this technique, products are active at concentrations of between about 1 to about 10,000 nM.

In another test the target is leukotriene B4 receptors (Cavia porcellus, UniProt H0VYV8). The test is described as follows: biochemical. Type of test: binding, guinea-pig. Conditions: Table XIX; guinea-pig spleen membranes, tritium-labelled LTB4; read-out: IC50 Binding (Cheng).
leukotriene B4 receptors, sequence (H0VYV8 1-348): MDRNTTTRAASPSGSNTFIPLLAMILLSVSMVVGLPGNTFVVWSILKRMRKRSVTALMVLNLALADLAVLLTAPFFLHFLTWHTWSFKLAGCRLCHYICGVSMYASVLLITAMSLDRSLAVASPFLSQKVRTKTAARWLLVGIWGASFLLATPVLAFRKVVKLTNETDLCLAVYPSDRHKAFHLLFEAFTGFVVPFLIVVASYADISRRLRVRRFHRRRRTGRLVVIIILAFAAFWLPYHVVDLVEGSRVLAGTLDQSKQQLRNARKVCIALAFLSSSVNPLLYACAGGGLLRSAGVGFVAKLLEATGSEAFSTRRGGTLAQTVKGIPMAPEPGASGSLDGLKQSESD

The values below come from patent US5366982A (priority 1990, dated 1994).

Bounds are passed on as bounds.

For the compound `COc1ccc(-c2cc(OCCCCCC(=O)O)nc(-c3ccccc3)c2)cc1` [6-{[4-(4-methoxyphenyl)-6-phenyl-2-pyridyl]oxy}hexanoic acid], the IC50 stood at 1.1 µM in test [1] and 0.015 µM on leukotriene B4 receptors.

As for `Cc1ccc(-c2cc(OCCCCCC(=O)O)nc(-c3ccccc3)c2)cc1` [6-{[4-(4-methylphenyl)-6-phenyl-2-pyridyl]oxy}hexanoic acid], the IC50 is 0.1 µM in test [1] and 0.015 µM at leukotriene B4 receptors.

In the case of `CSc1ccc(-c2cc(OCCCCCC(=O)O)nc(-c3ccccc3)c2)cc1` [6-{[4-(4-methylthiophenyl)-6-phenyl-2-pyridyl]oxy}hexanoic acid], the IC50 in test [1] was determined as 3 µM; on leukotriene B4 receptors, 0.01 µM.

For the compound `O=C(O)CCCCCOc1cc(-c2ccccc2)cc(-c2cccs2)n1` [6-{[4-phenyl-6-(2-thienyl)-2-pyridyl]oxy}hexanoic acid], the IC50 in test [1] was determined as 0.3 µM; at leukotriene B4 receptors it was 0.05 µM.

Take `O=C(O)CCCCCOc1cc(-c2ccccc2)cc(-c2ccsc2)n1` [6-{[4-phenyl-6-(3-thienyl)-2-pyridyl]oxy}hexanoic acid]: the IC50 amounted to 1 µM in test [1] and 0.01 µM on leukotriene B4 receptors.

As to `O=C(O)CCCCCOc1cc(-c2ccccc2)cc(-c2ccccc2F)n1` [6-{[6-(2-fluorophenyl)-4-phenyl-2-pyridyl]oxy}hexanoic acid], the IC50 came to 0.06 µM in test [1] and 0.003 µM at leukotriene B4 receptors.

In the case of `O=C(O)CCCCCOc1cc(-c2ccccc2)cc(-c2cccc(F)c2)n1` [6-{[6-(3-fluorophenyl)-4-phenyl-2-pyridyl]oxy}hexanoic acid], the IC50 was determined as 0.15 µM in test [1] and 0.004 µM on leukotriene B4 receptors.

`COc1ccc(-c2cc(OCCCCCC(=O)O)nc(-c3ccc(Cl)cc3)c2)cc1` [6-{[6-(4-chlorophenyl)-4-(4-methoxyphenyl)-2-pyridyl]oxy}hexanoic acid]: the IC50 was greater than 10 µM in test [1] and 1.2 µM at leukotriene B4 receptors.

As for `O=C(O)CCCCCOc1cc(-c2ccccc2)cc(-c2ccc(F)cc2)n1` [6-{[6-(4-fluorophenyl)-4-phenyl-2-pyridyl]oxy}hexanoic acid], the results for the half-inhibitory concentration (IC50) (in test [1]; on leukotriene B4 receptors) were 1.7 µM and 0.03 µM, respectively.

As to `O=C(O)CCCCCCOc1cc(-c2ccccc2)cc(-c2ccccc2)n1` [7-[(4,6-diphenyl-2-pyridyl)oxy]heptanoic acid], the IC50 in test [1] came to 1.3 µM; on leukotriene B4 receptors it was 0.025 µM.

As for `COC(=O)CCCCCOc1cc(-c2ccccc2)cc(-c2ccccc2)n1` [methyl 6-[(4,6-diphenyl-2-pyridyl)oxy]hexanoate], the IC50 was greater than 10 µM in test [1] and 0.04 µM on leukotriene B4 receptors.
